Experimental data reported in patent US20260199236A1, “PERFLUORINATED MICELLES AND MEDICAL USES THEREOF” (COMMISSARIAT A L'ENERGIE ATOMIQUE ET AUX ENERGIES …, priority 2022, published 2026).

Key:
[1] = Oxygen content decay of O2-saturated dispersions on ambient air equilibration; settings: first-order fit, SDS 9 mM, Triton X-100 3.8 mM; for Release rate (oxygen): PFTD-PEG 3.8 mM
Description: Another commonly used method consists in measuring the rate of decrease of the oxygen concentration of a given micellar solution from O2-saturation to equilibrium with ambient air. In the case of perfluorinated micelles, any observed difference in deoxygenation rate can be directly related the diffusion of O2 from the perfluorinated core to the aqueous medium while oxygen dissolved in the saturated dispersant (i.e. water) escapes to the atmosphere.
To assess the dioxygen release capacity of PFTD-PEG micelles, colloids (4 mL, c=3.8 mM and 7.6 mM) were pre-saturated with dioxygen under agitation in a sealed round-bottom flask. After saturation, agitation was stopped and the PFTD-PEG micellar suspension was left to equilibrate with ambient air. Evolution of dioxygen concentration in the medium over time was recorded using a dissolved dioxygen sensor.
In this equation, y0 corresponds to the value of y at t=0 s while A corresponds to the amplitude of the curve such that A=Plateau−y0. This model provides essential parameters such as the oxygen half-life and the oxygen release rate from the different micellar suspensions.

[2] = Oxygen release from O2-saturated colloid injected into degassed water; assay type: physicochemical; settings: 200 μL of 7.6 mM surfactant colloid into degassed water
Protocol: To this end, a small volume of oxygen-saturated micelle colloid was injected with variable PFTD-PEG concentrations into a large volume of degassed water and the release of oxygen was monitored by continuous electrochemical monitoring over time (FIG. 3A). From this set of experiments, a clear correlation between the micelle concentration and the amount of released oxygen was observed. In fact, 15 min after addition of 200 μL of a 5, 10, or 20 mg mL^−1 PFTD-PEG colloid to 100 mL of degassed water, the oxygen concentration reached values of 2.9, 4.3, and 5.6 μM, respectively. As a reference, the oxygen concentration reached only 1.1 μM when the same volume of oxygen-saturated water was added instead of the micelle colloid. The effect of the fluorinated PFTD-PEG micelles on oxygen delivery was compared to that of micelles obtained from commonly used amphiphiles, namely sodium dodecyl sulfate (SDS) and Triton X100.

Compound	Release rate (oxygen) [1]	t1/2 (oxygen half-life) ([1]; PFTD-PEG 3.8 mM (10 mg mL^−1))	oxygen concentration [2]
Triton X-100	2.49 ± 0.04 10^−4 s^−1	46.422 ± 0.832 min	3.6 mM
CCCCCCCCCCCCOS(=O)(=O)[O-].[Na+] [SDS, sodium dodecyl sulfate]	2.61 ± 0.03 10^−4 s^−1	–	2.7 mM
